Measurements as given in ChEMBL document CHEMBL1201862, “PubChem BioAssay data set” (2004).
Several values for one entry are separate records, joined by “and”; a condition that tells them apart may be missing. Equal entries are not always repeated.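 Five compound concentrations were applied to cells in 96-well plates for 48 hours; endpoints were derived by simple linear interpolation of the resulting dose-response curve. At the GI50, growth is halved.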 Activity calls are given as the source filed them. No stated cut-off is given here; in the data, active = GI50 up to about 1.1 µM and inactive = higher.

Key:
Experiment in all cases: growth of human tumour cells (NCI), 48 h
[1] = system: PC-3
[2] = system: T47D
[3] = system: SK-MEL-28
[4] = system: OVCAR-4
[5] = system: SNB-75
[6] = system: UACC-62
[7] = system: HCT-116
[8] = system: SW-620
[9] = system: K562
[10] = system: MDA-N
[11] = system: EKVX
[12] = system: IGROV-1
[13] = system: COLO 205
[14] = system: MOLT-4
[15] = system: OVCAR-5
[16] = system: U-251
[17] = system: ACHN
[18] = system: SN12C
[19] = system: A549
[20] = system: SNB-19
[21] = system: UO-31
[22] = system: SR
[23] = system: SK-OV-3
[24] = system: MDA-MB-231
[25] = system: SF-539
[26] = system: HT-29
[27] = system: SK-MEL-2
[28] = system: TK-10
[29] = system: HCT-15
[30] = system: HL-60
[31] = system: NCI-H522
[32] = system: NCI-H460
[33] = system: OVCAR-8
[34] = system: RPMI-8226
[35] = system: DU-145
[36] = system: LOX IMVI
[37] = system: NCI-H226
[38] = system: MCF7
[39] = system: 786-0
[40] = system: Hs-578T
[41] = system: SK-MEL-5
[42] = system: HOP-92
[43] = system: NCI-H23
[44] = system: MDA-MB-435
[45] = system: UACC-257
[46] = system: HOP-62
[47] = system: CCRF-CEM
[48] = system: M14
[49] = system: SF-295
[50] = system: SF-268
[51] = system: KM12
[52] = system: NCI/ADR-RES
[53] = system: Malme-3M
[54] = system: OVCAR-3
[55] = system: RXF 393
[56] = system: HCC 2998
[57] = system: CAKI-1
[58] = system: A498
[59] = system: BT-549

Compound: CCn1c(=O)c2nc(SC)sc2n(-c2ccccc2)c1=S
- GI50 [1]: 30.7 µM (inactive)
- GI50 [2]: 55.7 µM (inactive)
- GI50 [3]: > 100 µM (inactive)
- GI50 [4]: > 100 µM (inactive)
- GI50 [5]: 91.2 µM (inactive)
- GI50 [6]: 38 µM (inactive)
- GI50 [7]: 58.7 µM (inactive)
- GI50 [8]: 93.1 µM (inactive)
- GI50 [9]: 11.3 µM (inactive)
- GI50 [10]: 47.2 µM (inactive)
- GI50 [11]: > 100 µM (inactive)
- GI50 [12]: > 100 µM (inactive)
- GI50 [13]: > 10 µM (inactive)
- GI50 [14]: 31.6 µM (inactive)
- GI50 [15]: > 100 µM (inactive)
- GI50 [16]: > 100 µM (inactive)
- GI50 [17]: 43.9 µM (inactive)
- GI50 [18]: 86.9 µM (inactive)
- GI50 [19]: 98.9 µM (inactive)
- GI50 [20]: 89.1 µM (inactive)
- GI50 [21]: 16.6 µM (inactive)
- GI50 [22]: > 100 µM (inactive)
- GI50 [23]: 94.6 µM (inactive)
- GI50 [24]: > 100 µM (inactive)
- GI50 [25]: 69.2 µM (inactive)
- GI50 [26]: 47.2 µM (inactive)
- GI50 [27]: 28.6 µM (inactive)
- GI50 [28]: > 100 µM (inactive)
- GI50 [29]: 79.4 µM
- GI50 [30]: 3.08 µM (inactive)
- GI50 [31]: 79.3 µM (inactive)
- GI50 [32]: 37.8 µM (inactive)
- GI50 [33]: 68.7 µM (inactive)
- GI50 [34]: 74.6 µM (inactive)
- GI50 [35]: > 100 µM (inactive)
- GI50 [36]: 42.5 µM (inactive)
- GI50 [37]: 41 µM (inactive)
- GI50 [38]: 76.4 µM (inactive)
- GI50 [39]: > 100 µM (inactive)
- GI50 [40]: 40.3 µM (inactive)
- GI50 [41]: 39.4 µM (inactive)
- GI50 [42]: 55.5 µM (inactive)
- GI50 [43]: 46.8 µM (inactive)
- GI50 [44]: 46.7 µM (inactive)
- GI50 [45]: > 100 µM (inactive)
- GI50 [46]: > 100 µM (inactive)
- GI50 [47]: 19.6 µM (inactive)
- GI50 [48]: 65.3 µM (inactive)
- GI50 [49]: > 100 µM (inactive)
- GI50 [50]: > 100 µM (inactive)
- GI50 [51]: 49.9 µM (inactive)
- GI50 [52]: 44.5 µM (inactive)
- GI50 [53]: > 100 µM (inactive)
- GI50 [54]: 68.5 µM (inactive)
- GI50 [55]: 67.3 µM (inactive)
- GI50 [56]: > 100 µM (inactive)

Compound: COc1cc(OC)nc(NC(=O)NS(=O)(=O)c2cccc3ncn(C)c(=O)c23)n1
- GI50 [2]: > 100 µM (inactive)
- GI50 [4]: > 100 µM (inactive)
- GI50 [5]: 41.3 µM (inactive)
- GI50 [6]: > 100 µM (inactive)
- GI50 [7]: > 100 µM (inactive)
- GI50 [8]: > 100 µM (inactive)
- GI50 [9]: > 100 µM (inactive)
- GI50 [10]: > 100 µM (inactive)
- GI50 [11]: > 100 µM (inactive)
- GI50 [12]: > 100 µM (inactive)
- GI50 [13]: > 100 µM (inactive)
- GI50 [57]: > 100 µM (inactive)
- GI50 [14]: > 100 µM (inactive)
- GI50 [15]: > 100 µM (inactive)
- GI50 [16]: > 100 µM (inactive)
- GI50 [17]: > 100 µM (inactive)
- GI50 [18]: > 100 µM (inactive)
- GI50 [19]: > 100 µM (inactive)
- GI50 [20]: > 100 µM (inactive)
- GI50 [21]: > 100 µM (inactive)
- GI50 [22]: > 100 µM (inactive)
- GI50 [23]: > 100 µM (inactive)
- GI50 [24]: > 100 µM (inactive)
- GI50 [25]: > 100 µM (inactive)
- GI50 [26]: > 100 µM (inactive)
- GI50 [27]: > 100 µM (inactive)
- GI50 [28]: > 100 µM (inactive)
- GI50 [29]: > 100 µM
- GI50 [30]: > 100 µM (inactive)
- GI50 [31]: > 100 µM (inactive)
- GI50 [33]: > 100 µM (inactive)
- GI50 [34]: > 100 µM (inactive)
- GI50 [35]: > 100 µM (inactive)
- GI50 [36]: > 100 µM (inactive)
- GI50 [37]: > 100 µM (inactive)
- GI50 [38]: > 100 µM (inactive)
- GI50 [39]: > 100 µM (inactive)
- GI50 [40]: 67.1 µM (inactive)
- GI50 [41]: > 100 µM (inactive)
- GI50 [42]: > 100 µM (inactive)
- GI50 [43]: > 100 µM (inactive)
- GI50 [44]: > 100 µM (inactive)
- GI50 [45]: > 100 µM (inactive)
- GI50 [46]: > 100 µM (inactive)
- GI50 [47]: > 100 µM (inactive)
- GI50 [48]: > 100 µM (inactive)
- GI50 [49]: > 100 µM (inactive)
- GI50 [58]: > 100 µM (inactive)
- GI50 [50]: > 100 µM (inactive)
- GI50 [52]: > 100 µM (inactive)
- GI50 [53]: > 100 µM (inactive)
- GI50 [54]: > 100 µM (inactive)
- GI50 [55]: > 100 µM (inactive)

Compound: Nc1nc(Nc2ccccc2)sc1C(=O)c1ccc(Cl)cc1
- GI50 [2]: > 95.1 µM (inactive)
- GI50 [3]: > 100 µM (inactive)
- GI50 [4]: 0.748 µM (active)
- GI50 [5]: 2.48 µM (inactive)
- GI50 [8]: 4.13 µM (inactive)
- GI50 [9]: > 100 µM (inactive)
- GI50 [11]: > 58.9 µM (inactive)
- GI50 [12]: 3.72 µM (inactive)
- GI50 [13]: > 100 µM (inactive)
- GI50 [57]: 0.71 µM (active)
- GI50 [14]: 8.99 µM (inactive)
- GI50 [15]: > 100 µM (inactive)
- GI50 [16]: 2.69 µM (inactive)
- GI50 [20]: 3.24 µM (inactive)
- GI50 [22]: 1.36 µM (inactive)
- GI50 [23]: 2.46 µM (inactive)
- GI50 [24]: 4.3 µM (inactive)
- GI50 [25]: > 100 µM (inactive)
- GI50 [26]: > 100 µM (inactive)
- GI50 [27]: 15.1 µM (inactive)
- GI50 [28]: 5.12 µM (inactive)
- GI50 [29]: > 100 µM
- GI50 [30]: > 100 µM (inactive)
- GI50 [38]: 4.39 µM (inactive)
- GI50 [42]: 3.39 µM (inactive)
- GI50 [43]: 8.17 µM (inactive)
- GI50 [44]: 1.3 µM (inactive)
- GI50 [46]: 2.88 µM (inactive)
- GI50 [47]: > 100 µM (inactive)
- GI50 [48]: > 100 µM (inactive)
- GI50 [49]: 3.7 µM (inactive)
- GI50 [58]: 2.4 µM (inactive)
- GI50 [50]: 1.35 µM (inactive)
- GI50 [51]: > 100 µM (inactive)
- GI50 [55]: 2.69 µM (inactive)

Compound: CC(C)NC(=O)OCc1c(COC(=O)NC(C)C)c(-c2cc[n+](COC(=O)CC(C)(C)C)cc2)n2c1CCC2
- GI50 [1]: > 100 µM (inactive)
- GI50 [4]: > 100 µM (inactive)
- GI50 [8]: > 100 µM (inactive)
- GI50 [9]: > 100 µM (inactive)
- GI50 [10]: > 100 µM (inactive)
- GI50 [11]: > 100 µM (inactive)
- GI50 [12]: > 100 µM (inactive)
- GI50 [13]: > 100 µM (inactive)
- GI50 [57]: > 100 µM (inactive)
- GI50 [14]: > 100 µM (inactive)
- GI50 [16]: > 100 µM (inactive)
- GI50 [18]: > 100 µM (inactive)
- GI50 [19]: > 100 µM (inactive)
- GI50 [20]: > 100 µM (inactive)
- GI50 [21]: > 100 µM (inactive)
- GI50 [22]: 42.4 µM (inactive)
- GI50 [23]: > 100 µM (inactive)
- GI50 [24]: > 100 µM (inactive)
- GI50 [25]: > 100 µM (inactive)
- GI50 [29]: > 100 µM
- GI50 [30]: > 100 µM (inactive)
- GI50 [31]: > 100 µM (inactive)
- GI50 [33]: > 100 µM (inactive)
- GI50 [34]: > 100 µM (inactive)
- GI50 [37]: > 100 µM (inactive)
- GI50 [38]: > 100 µM (inactive)
- GI50 [39]: > 100 µM (inactive)
- GI50 [40]: > 100 µM (inactive)
- GI50 [41]: > 100 µM (inactive)
- GI50 [42]: > 100 µM (inactive)
- GI50 [43]: > 100 µM (inactive)
- GI50 [45]: > 100 µM (inactive)
- GI50 [46]: > 100 µM (inactive)
- GI50 [59]: > 100 µM (inactive)
- GI50 [47]: > 100 µM (inactive)
- GI50 [48]: > 100 µM (inactive)
- GI50 [49]: > 100 µM (inactive)
- GI50 [58]: > 100 µM (inactive)
- GI50 [52]: > 100 µM (inactive)
- GI50 [54]: > 100 µM (inactive)
- GI50 [55]: > 100 µM (inactive)
- GI50 [56]: > 100 µM (inactive)

Compound: O=C(Nc1ccc([N+](=O)[O-])cc1)c1ccc([N+](=O)[O-])cc1
- GI50 [5]: 48.9 µM (inactive) and 70.6 µM (inactive)
- GI50 [49]: 85.9 µM (inactive) and 50.2 µM (inactive)
